Bounds are passed on as bounds.

Broadly, the IC50 is the point on the concentration scale where inhibition reaches its midpoint.

For one assay, the target named is Cdk1/cycB (UniProt P06493). The assay is described as follows: Cdk1/cycB kinase assay, histone H1 substrate. Format: biochemical, starfish. Conditions: Table 4; read-out: Cdk1, activity (IC50 for kinase inhibition). Here is the method:
The inhibition of Cdk1 can be determined as follows: Cdk1/cycB: Cdk1/cycB are obtained from ProQinase, Freiburg, Germany. Starfish oocytes are induced to enter M phase of the cell cycle with 10 μM 1-methyladenine and frozen in liquid nitrogen and stored at −80° C. […] Briefly, the supernatant from oocytes is equilibrated for 30 min at 4° C. under constant rotation with the p9^CKShs-sepharose beads. The beads are extensively washed and active cdk1/cycB kinase is eluted with purified p9^CKShs (3 mg/ml). […] The assay is carried with slight modifications in 96-well plates at ambient temperature for 20 min. […] The reaction is terminated by addition of 25 μl 0.05 M EDTA pH 7.0. An aliquot of 40 μl is spotted with a multichannel dispenser on Immobilon P membranes mounted in a Millipore Microtiter filter manifold connected to a low vacuum source. After elimination of liquid, the membrane is transferred to a sequence of 4 washing baths containing 0.5% H3PO4 and one with EtOH (shaking incubation for 10 min each), dried, mounted onto a Hewlett Packard TopCount manifold added 10 μl Microscint® and counted. […] Cells were seeded at 2.5×10^7 cells per 150 mm dish and allowed to attach to a 150 mm dish for 1 hr at RT. Media (SF900II containing 10% FBS) is aspirated and recombinant baculovirus; GST-C-Raf-1, v-Ras and v-Src are added at MOI of 3.0, 2.5 and 2.5 receptively in a total volume of 4-5 mL. Cells are incubated for 1 hr at RT and then 15 mL of medium is added. Infected cells are incubated for 48-72 hr at 27° C. Infected Sf21 cells are scraped and collected into a 50 mL tube and centrifuged for 10 min at 4° C. at 1100 g in a Sorvall centrifuge. The cell pellet is washed once with ice cold PBS and lysed with 0.6 mL lysis buffer per 2.5×10^7 cells. Complete lysis of cells is achieved after 10 min on ice with occasional pipetting. […] GST-c-Raf-1 was allowed to bind to the beads at 4° C. for 1 hr with rocking. Bound GST-c-Raf-1 with beads was transferred to a column. The column is washed once with lysis buffer and twice with ice cold Tris buffered saline. Ice cold elution buffer is added and column flow is stopped to allow the free glutathione to disrupt the interaction of GST-c-Raf-1 with glutathione sepharose beads. Fractions (1 mL) are collected into pre-chilled tubes. Each tube contains 10% glycerol (final concentration) to maintain kinase activity during freeze thaw cycles. Purified fractions of GST-c-Raf-1 kinase protein are stored at −80° C.

In assay [1] the target is T1, human insulin receptor (Ins-R) (Homo sapiens, UniProt P06213).
T1 construct: encoding the amino acid region 919-1343 of the intra-cytoplasmic kinase domain of the human insulin receptor; made in house; host or cells: baculovirus (Bac-to-Bac)
The assay is described as follows: Ins-R tyrosine kinase assay, GST-Ins-R. It counts as biochemical. Conditions: Table 4; read-out: Ins-R, activity (IC50 for kinase inhibition). An excerpt:
The inhibition of IGF-1R and Ins-R can be determined as follows: The baculovirus donor vector pfbgx3IGFIRcd is used to generate a recombinant baculovirus that expresses the amino acid region 950-1337 of the mature peptide cytoplasmic domain of the human IGF-IR. To generate the cDNA fragment encoding the amino acid region 919-1343 of the intra-cytoplasmic kinase domain of the human insulin receptor, pC5hInsR is used. The fragments of the human IGF-IR and Ins-R are cloned, expressed and small-scale purified as a factor Xa-cleavable glutathione-S-transferase (GST)-fusion protein using the Bac-to-Bac™ system (GIBCO BRL) of recombinant baculovirus generation. Virus containing media is collected from the transfected cell culture and used for infection to increase its titer. Virus containing media obtained after two rounds of infection is used for large-scale protein expression. Cell extracts are prepared and loaded onto a glutathione-Sepharose (Pharmacia) column. After washing, the GST-tagged proteins are then eluted with a glutathione-containing buffer. Purified protein is stored at −70° C. in elution buffer. Tyrosine protein kinase assays with purified GST-IGF-1R and GST-ins-R are carried in a final volume of 30 μl containing 20 mM Tris-HCl, pH 7.6, 10 mM MgCl2, 0.01 mM Na3VO4, 1% DMSO, 1 mM DTT, 3 μg/ml poly(Glu,Tyr) 4:1 and 10 μM ATP (γ-[^33P]-ATP 0.1 μCi). The assay is performed in 96-well plates at ambient temperature for 20 min and terminated by addition of 25 μl 0.05 M EDTA pH 7.0. An aliquot of 40 μl is spotted with a multichannel dispenser on Whatman P81 membranes mounted in a Millipore Microtiter filter manifold connected to a low vacuum source. After elimination of liquid, the membrane is transferred to a sequence of 4 washing baths containing 0.5% H3PO4 and one with EtOH (shaking incubation for 10 min each), dried, mounted onto a Hewlett Packard TopCount manifold added 10 μl Microscint® and counted. Compounds of formula (I) show up to 90% inhibition of Ins-R at 10,000 nM, preferably between 60-90% inhibition. The inhibition of Tek can be determined as follows: The procedure of the expression, purification and assay these kinases has been described. Fabbro et al., Pharmacol. Ther. 82(2-3) 293-301 (1999). In brief, the glutathione S-transferase (GST) gene from the pAcG1 vector (Pharmingen) is excised with EcoRV and EcoRI and inserted into the cloning site of the Fast-Bac baculoviral vector (GIBCO) creating a 5530 bp vector with N-terminal cloning sites derived from the pAcG1 fusion vector (FBG0). The C-terminal cloning site may be any cloning site (from the Fast-Bac vector) downstream of the N-terminal cloning site used. N-terminally GST-fused (pAcG1, Pharmingen) KDR, Flt-1, Flk-1, Tek and PDGFR-β kinase domains are obtained from ProQinase, Freiburg, Germany. Tek is recloned into the FBG1 vector by EcoRI excision and ligation into EcoRI digested FBG1 (FBG1-Tek). The coding sequences for the whole cytoplasmic domain of c-Kit (aa 544-976) and c-Fms (aa 538-972) are amplified by PCR from human uterus and from human bone marrow cDNA libraries (Clontech), respectively. The amplified DNA fragments are fused to GST by cloning them into FBG1 as BamHI-EcoRI insertions, to yield FBG1-c-Kit and FBG1-c-Fms. Tek is recloned into the FBG0 transfer vector by EcoRI excision and ligation into EcoRI digested FBG0 (FBG-Tie2/Tek). FGFR-1 and c-met kinase domains are obtained by PCR from human A431 cells. N-terminal primers contain an overhanging EcoRI site, while C-terminal primers contain a XhoI site to aid cloning into the transfer vectors. After digestion of both the PCR fragments and FBG0 the cleavage products are gel-purified and ligated together to form the kinase constructs (FBG-Met, FBG-FGFR-1).

Another assay concerns the target T2, c-Abl kinase (Homo sapiens, UniProt P00519).
T2 construct: The His-tagged kinase domain of c-Abl is cloned and expressed in the baculovirus/Sf9 system; His; made in house; host or cells: Sf9 (baculovirus)
T2 sequence (P00519 242-493 limits assumed): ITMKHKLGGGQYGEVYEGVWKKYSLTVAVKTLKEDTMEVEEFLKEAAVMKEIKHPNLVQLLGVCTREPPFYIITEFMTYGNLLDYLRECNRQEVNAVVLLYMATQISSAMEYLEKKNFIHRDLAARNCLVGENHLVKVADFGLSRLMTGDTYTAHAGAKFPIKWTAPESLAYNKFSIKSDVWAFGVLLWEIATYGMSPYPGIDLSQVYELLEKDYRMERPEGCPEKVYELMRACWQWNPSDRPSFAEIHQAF
The assay can be described thus: c-Abl protein-tyrosine kinase filter binding assay. Format: biochemical. Here is the method: The His-tagged kinase domain of c-Abl is cloned and expressed in the baculovirus/Sf9 system as described by Bhat et al. in J. Biol. Chem. 1997; 272:16170-16175. A protein of 37 kD (c-Abl kinase) is purified by a two-step procedure over a Cobalt metal chelate column followed by an anion exchange column with a yield of 1-2 mg/L of Sf9 cells (Bhat et al., reference cited). The purity of the c-Abl kinase is >90% as judged by SDS-PAGE after Coomassie blue staining. The assay contains (total volume of 30 μL): c-Abl kinase (50 ng), 20 mM Tris.HCl, pH 7.5, 10 mM MgCl2, 10 μM Na3VO4, 1 mM DTT and 0.06 μCi/assay [γ^33 P]-ATP (5 μM ATP) using 30 μg/mL poly-Ala,Glu,Lys,Tyr-6:2:5:1 (Poly-AEKY, Sigma P1152) in the presence of 1% DMSO. Reactions are terminated by adding 10 μL of 250 mM EDTA and 30 μL of the reaction mixture is transferred onto Immobilon-PVDF membrane (Millipore, Bedford, Mass., USA) previously soaked for 5 min with methanol, rinsed with water, then soaked for 5 min with 0.5% H3PO4 and mounted on vacuum manifold with disconnected vacuum source. After spotting all samples, vacuum is connected and each well rinsed with 200 μL 0.5% H3PO4. Membranes are removed and washed on a shaker with 0.5% H3PO4 (4 times) and once with ethanol. Membranes are counted after drying at ambient temperature, mounting in Packard TopCount 96-well frame, and addition of 10 μL/well of Microscint™ (Packard).

A further assay addresses T3, human RET (Homo sapiens, UniProt P07949).
T3 construct: fused on or other part: N-terminal GST tag (pFB-GSTX3 vector)
The assay can be described thus: RET kinase inhibition, GST-wtRET or GST-RET-Men2B, 33P incorporation into poly(Glu,Tyr). Format: biochemical. Conditions: Table 4. How it is done: The inhibition of RET is measured as follows: The baculovirus donor vector pFB-GSTX3 is used to generate a recombinant baculovirus that expresses the amino acid region 658-1072 (Swiss prot No. Q9BTB0) of the intra-cytoplasmic kinase domain of human RET-Men2A which corresponds to the wild-type kinase domain of RET (wtRET) and RET-Men2B, which differs from the wtRET by the activating mutation in the activation loop M918T. The coding sequences for the cytoplasmic domain of wtRET and RET-Men2B are amplified by PCR from the plasmids pBABEpuro RET-Men2A and pBABEpuro RET-Men2B. The amplified DNA fragments and the pFB-GSTX3 vector are made compatible for ligation by digestion with SalI and KpnI. Ligation of these DNA fragments results in the baculovirus donor plasmid pFB-GX3-RET-Men2A and pFB-GX3-RET-Men2B, respectively. Production of virus: Transfer vectors containing the kinase domains are transfected into the DH10Bac cell line (GIBCO) and plated on selective agar plates. Colonies without insertion of the fusion sequence into the viral genome (carried by the bacteria) are blue. Single, white colonies are picked and viral DNA (bacmid) are isolated from the bacteria by standard plasmid purification procedures. Sf9 cells or Sf21 (American Type Culture Collection) cells are then transfected in 25 cm^2 flasks with the viral DNA using Cellfectin reagent. Determination of small scale protein expression in Sf9 cells: Virus-containing media is collected from the transfected cell culture and used for infection to increase its titer. Virus-containing media obtained after two rounds of infection is used for large-scale protein expression. For large-scale protein expression 100 cm^2 round tissue culture plates are seeded with 5×10^7 cells/plate and infected with 1 mL of virus-containing media (approximately 5 MOIs). After 3 days, the cells are scraped off the plate and centrifuged at 500 rpm for 5 minutes. Cell pellets from 10-20, 100 cm^2 plates, are re-suspended in 50 mL of ice-cold lysis buffer (25 mM tris-HCl, pH 7.5, 2 mM EDTA, 1% NP-40, 1 mM DTT, 1 mM P MSF). The cells are stirred on ice for 15 minutes and then centrifuged at 5,000 rpms for 20 minutes. Purification of GST-tagged proteins: The centrifuged cell lysate is loaded onto a 2 mL glutathione-sepharose column (Pharmacia) and is washed 3× with 10 mL of 25 mM tris-HCl, pH 7.5, 2 mM EDTA, 1 mM DTT, 200 mM NaCl. The GST-tagged proteins are then eluted by 10 applications (1 mL each) of 25 mM tris-HCl, pH 7.5, 10 mM reduced-glutathione, 100 mM NaCl, 1 mM DTT, 10% glycerol and stored at −70° C. Measure of enzyme activity: Tyrosine protein kinase assays with either purified GST-wtRET or GST-RET-Men2B protein are carried out in a final volume of 30 μL containing 15 ng of either GST-wtRET or GST-RET-Men2B protein, 20 mM tris-HCl, pH 7.5, 1 mM MnCl2, 10 mM MgCl2, 1 mM DTT, 3 μg/mL poly(Glu,Tyr) 4:1, 1% DMSO, 2.0 μM ATP (γ-[^33P]-ATP 0.1 μCi). The activity is assayed in the presence or absence of inhibitors, by measuring the incorporation of ^33P from [γ^33P] ATP into poly(Glu,Tyr) 4:1. The assay is carried out in 96-well plates at ambient temperature for 15 minutes under conditions described below and terminated by the addition of 20 μL of 125 mM EDTA. Subsequently, 40 μL of the reaction mixture are transferred onto Immobilon-PVDF membrane (Millipore) previously soaked for 5 minutes with methanol, rinsed with water, then soaked for 5 minutes with 0.5% H3PO4 and mounted on vacuum manifold with disconnected vacuum source. After spotting all samples, vacuum is connected and each well-rinsed with 200 μL 0.5% H3PO4. Membranes are removed and washed 4× on a shaker with 1.0% H3PO4, once with ethanol. Membranes are counted after drying at ambient temperature, mounting in Packard TopCount 96-well frame, and addition of 10 μL/well of Microscint™ (Packard). IC50 values are calculated by linear regression analysis of the percentage inhibition of each compound in duplicate, at 4 concentrations (usually 0.01, 0.1, 1 and 10 μM). […]

T3 sequence (P07949 1-1072 isoform P07949-2): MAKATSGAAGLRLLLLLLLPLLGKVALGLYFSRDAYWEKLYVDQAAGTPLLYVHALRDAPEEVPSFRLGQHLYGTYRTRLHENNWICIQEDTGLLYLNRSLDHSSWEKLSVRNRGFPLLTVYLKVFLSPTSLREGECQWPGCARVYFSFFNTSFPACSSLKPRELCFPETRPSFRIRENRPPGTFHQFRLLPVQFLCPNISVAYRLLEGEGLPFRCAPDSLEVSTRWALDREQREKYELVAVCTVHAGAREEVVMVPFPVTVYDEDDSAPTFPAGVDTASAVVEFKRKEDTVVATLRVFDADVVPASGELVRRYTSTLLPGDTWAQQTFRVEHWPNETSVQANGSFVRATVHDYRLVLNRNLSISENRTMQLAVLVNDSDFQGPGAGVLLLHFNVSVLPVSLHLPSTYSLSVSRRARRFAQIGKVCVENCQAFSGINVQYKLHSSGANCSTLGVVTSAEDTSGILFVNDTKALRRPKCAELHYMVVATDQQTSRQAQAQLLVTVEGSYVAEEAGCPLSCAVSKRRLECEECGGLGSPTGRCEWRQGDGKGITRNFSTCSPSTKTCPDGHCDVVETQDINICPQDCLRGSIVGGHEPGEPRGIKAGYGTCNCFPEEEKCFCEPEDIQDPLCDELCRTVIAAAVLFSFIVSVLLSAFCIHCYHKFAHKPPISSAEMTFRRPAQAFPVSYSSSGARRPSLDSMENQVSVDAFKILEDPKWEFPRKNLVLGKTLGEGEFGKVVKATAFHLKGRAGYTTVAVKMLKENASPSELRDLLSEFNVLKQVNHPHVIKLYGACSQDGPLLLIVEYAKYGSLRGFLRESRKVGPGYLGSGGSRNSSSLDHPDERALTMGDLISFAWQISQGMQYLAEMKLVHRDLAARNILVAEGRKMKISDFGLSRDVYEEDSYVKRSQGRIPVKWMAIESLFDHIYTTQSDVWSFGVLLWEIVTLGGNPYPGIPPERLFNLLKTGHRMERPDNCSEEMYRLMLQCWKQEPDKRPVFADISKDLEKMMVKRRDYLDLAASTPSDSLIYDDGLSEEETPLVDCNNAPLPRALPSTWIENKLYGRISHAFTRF
T1 sequence (P06213 958-1382 limits assumed): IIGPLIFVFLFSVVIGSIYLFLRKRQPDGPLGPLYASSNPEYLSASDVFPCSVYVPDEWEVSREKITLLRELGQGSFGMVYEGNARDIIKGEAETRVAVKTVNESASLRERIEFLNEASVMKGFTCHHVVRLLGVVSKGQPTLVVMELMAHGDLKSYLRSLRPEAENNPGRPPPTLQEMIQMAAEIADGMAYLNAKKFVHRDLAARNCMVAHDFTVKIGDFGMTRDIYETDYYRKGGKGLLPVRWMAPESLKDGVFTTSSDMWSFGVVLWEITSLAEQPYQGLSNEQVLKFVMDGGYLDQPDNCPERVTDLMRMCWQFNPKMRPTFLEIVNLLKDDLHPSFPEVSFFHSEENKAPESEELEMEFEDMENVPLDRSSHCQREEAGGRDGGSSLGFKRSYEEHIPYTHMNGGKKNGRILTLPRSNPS

Turning to `Nc1cc(-c2ccccc2)nc2c(Br)cnn12` [Example 18, 3-Bromo-5-phenyl-pyrazolo[1,5-a]pyrimidin-7-ylamine], the IC50 (on Cdk1/cycB; in assay [1]) was less than 10 µM each time.
As to `CN1CCN(c2ccc(-c3cnn4c(N)c(-c5ccc(O)cc5)cnc34)cc2)CC1` [Example 35, 4-{7-Amino-3-[4-(4-methyl-piperazin-1-yl)-phenyl]-pyrazolo[1,5-a]pyrimidin-6-yl}-phenol], the half-inhibitory concentration (IC50) at c-Abl kinase and at human RET was less than 10 µM each time.
The compound `Cc1nn2c(N)c(-c3cccc(O)c3)cnc2c1-c1ccc(N2CCN(C)CC2)cc1` [Example 61a, 3-{7-Amino-2-methyl-3-[4-(4-methyl-piperazin-1-yl)phenyl]-pyrazolo[1,5-a]pyrimidin-6-yl}-phenol] registered an IC50 against human RET of less than 10 µM.

Source of the values: patent US20090099167A1, “Organic compounds” (Novartis Institutes for Biomedical Research, priority 2004, published 2009).
